Measurements as given in paper PMC11475281, “A Novel Liver Cancer-Selective Histone Deacetylase Inhibitor Is Effective against Hepatocellular Carcinoma and Induces Durable Responses with Immunotherapy” (ACS Pharmacology & Translational Science, 2024).

Tested on: Hep-G2 cells
Experiment: Immunoblotting of acetylated histone H4 and α-tubulin
Format: cell-based, human
Conditions: for Acetylation status of histone H4 and α-tubulin: at 1/4 IC50 and 1/2 IC50
Text: To determine the contributions of HDAC inhibition to the antiproliferative activities of the glycosylated HDACi compounds, immunoblotting was used to investigate the acetylation status of histone H4 and α-tubulin, biomarkers for HDAC class I and class IIb intracellular inhibition, respectively,[27] in Hep-G2 cells in response to exposure to representative compounds STR-V-53, STR-V-114, and STR-I-195. We used SAHA as a positive control for HDAC inhibition and GAPDH level as a protein loading control.
Figure 3 Effects of STR-V-53 on intracellular markers of HDAC inhibition, antitumor immune response, and apoptosis. (a) STR-V-53 upregulates the levels of acetylated H4 and tubulin in Hep-G2 cells. Hep-G2 cells were treated with DMSO or 0.1% DMSO solution of SAHA (1.25 μM) and STR-V-53 (1.25 μM, 2.5 μM). Cells were treated for 5 h before lysis. Data are from two independent experiments. (b) STR-V-53 upregulates PD-L1 and downregulates PD-1 expressions in Hep-G2 cells. Cells were treated with DMSO or 0.1% DMSO solution of SAHA (5 μM and 10 μM) and STR-V-53 (10 and 20 μM) for 24 h. (c) STR-V-53 and SAHA caused upregulation of the levels of CD54 in the Hep-G2 cell line. Cells were treated with DMSO or 0.1% DMSO solution of SAHA (5 and 10 μM) and STR-V-53 (5, 10, and 20 μM) for 24 h. […] Cells were treated with DMSO or 0.1% DMSO solution of SAHA (5 μM) and STR-V-53 (10 and 20 μM).
10-017-CV), supplemented with 10% fetal bovine serum (FBS) (Corning, 35-010-CV). Hep-G2 cells were cultured in phenol red-free Minimum Essential Medium (MEM) (Corning, 17-305-CV), supplemented with 10% fetal bovine serum (FBS). SK-Hep-1 in ATCC-formulated EMEM (ATCC® 30–2003™); Huh-7 in DMEM (containing 4 mM L-glutamine and 1 g/L glucose) with […]
Kupffer Cell Media (Sekisui XenoTech, LLC, Cat. #K8700). Cells were seeded into a 96-well plate (2000 counts/100uL) for 24 h prior to treatment and then treated with various drug concentrations for 72 h. All drugs were dissolved in media with DMSO concentration maintained at 1%. The effect of compounds on cell viability was measured using the MTS assay (CellTiter 96 Aqueous One Solution and CellTiter 96 Non-Radioactive Cell Proliferation Assays, Promega, Madison, WI) as described by the manufacturer. IC50s were determined using Prism GraphPad 8.
Western blot protocol was described in our previous works 24,25. In brief, Hep-G2 cells were seeded into a 6-well plate at 1*106/well in MEM for 24-48 h prior to treatment. Various concentrations of SAHA, STR-V-53, STR-V-114, and STR-I-195 solutions in DMSO were added to the cell culture such that the final DMSO level was 0.1%. Cells were treated for 24 h, washed with cold PBS, and lysed with RIPA buffer (120 µL) (VWR, VWRVN653 -100ML) containing phosphatase inhibitor (Fisher Thermo, A32957) and protease inhib itor (Fisher Thermo, A32955). The cell lysates were scraped, collected, and vortexed for 15 s, followed by sonication for 60 s. The lysate was centrifuged at 14000x rpm for 10 min, and the supernatants were collected. The total protein concentration was determined using a BCA protein assay kit (BioVision, K813-2500). Based on the results from the […], the lysates were diluted to make equal protein concentration, and 40 µg of each lysate was loaded to each wel l of the TGX […]
MIDI 4-20% gel (Biorad, cat. 5671093) and ran at 150 V for 70 min. […] After washing with TBS-T 3x5 mins, bands were quantified using the Odyssey CLx Image system. […]

Structure (SMILES)	Acetylation status of histone H4 and α-tubulin	Acetylation of H4 and α-Tubulin (0.5 μM)	Acetylation of H4 (1.25 μM and 2.5 μM)	Acetylation of α-Tubulin (1.25 μM and 2.5 μM)
O=C(CCCCCCn1cc(-c2ccc(O[C@H]3O[C@H](CO)[C@@H](O)[C@H](O)[C@H]3O)cc2)nn1)NO [STR-V-53]	induced accumulation of acetylated H4 and acetylated tubulin			
O=C(CCCCCCn1cc(-c2ccc(O[C@@H]3O[C@H](CO)[C@@H](O)[C@H](O)[C@H]3O)cc2)nn1)NO [STR-I-195]		did not show significant acetylation	mild acetylation	significant acetylation
O=C(CCCCCCn1cc(-c2ccc3cc(O[C@H]4O[C@H](CO)[C@@H](O)[C@H](O)[C@H]4O)ccc3c2)nn1)NO [STR-V-114]	induced accumulation of acetylated H4 and acetylated tubulin			
